Source: ChEMBL document CHEMBL1131946, “Synthesis and evaluation of backbone/amide-modified analogs of leualacin” (Bioorg Med Chem Lett, 1999)

Columns and labels:
[1] = Inhibitory effect against U-46,619-induced platelet aggregation at a concentration of 1 uM; assay type: functional
[2] = Inhibitory effect against arachidonic acid-induced platelet aggregation at a concentration of 100 uM; assay type: functional
Rattus norvegicus [3] = organism: Rattus norvegicus; test: vasodilatory effect for [Ca2+] antagonism in aortic arch isolated from WKY rats at a concentration of 0.01 uM; assay type: functional, Pharyngeal arch artery
Rattus norvegicus [4] = organism: Rattus norvegicus; test: vasodilatory effect for [Ca2+] antagonism in aortic arch isolated from WKY rats at a concentration of 0.1 uM; assay type: functional, Pharyngeal arch artery
Rattus norvegicus [5] = organism: Rattus norvegicus; test: vasodilatory effect for [Ca2+] antagonism in aortic arch isolated from WKY rats at a concentration of 100 uM; assay type: functional, Pharyngeal arch artery
Rattus norvegicus [6] = organism: Rattus norvegicus; test: vasodilatory effect for [Ca2+] antagonism in aortic arch isolated from WKY rats at a concentration of 10 uM; assay type: functional, Pharyngeal arch artery
Rattus norvegicus [7] = organism: Rattus norvegicus; test: vasodilatory effect for [Ca2+] antagonism in aortic arch isolated from WKY rats at a concentration of 1 uM; assay type: functional, Pharyngeal arch artery
[8] = Inhibitory effect against collagen-induced platelet aggregation at a concentration of 100 ug/mL; assay type: functional
[9] = Inhibitory effect against TXB2 formation in response to arachidonic acid-induced platelet aggregation at a concentration of 100 uM; assay type: functional
[10] = Inhibitory effect against TXB2 formation in response to collagen-induced platelet aggregation at a concentration of 100 ug/mL; assay type: functional

| IC50 [1] [µM] | IC50 [2] [µM] | IC50 [8] [µM] | SMILES | Vasodilatory rate (Rattus norvegicus [3]) [%] | Vasodilatory rate (Rattus norvegicus [4]) [%] | Vasodilatory rate (Rattus norvegicus [5]) [%] | Vasodilatory rate (Rattus norvegicus [6]) [%] | Vasodilatory rate (Rattus norvegicus [7]) [%] | Amount of TXB2 formation [9] [ng/mL] | Amount of TXB2 formation [10] [ng/mL] |
| --- | --- | --- | --- | --- | --- | --- | --- | --- | --- | --- |
| > 200 | > 200 | > 150 | CC(C)C[C@@H]1NC(=O)[C@@H](CC(C)C)OC(=O)CCN(C)C(=O)[C@H](Cc2ccccc2)N(C)C(=O)[C@H](CC(C)C)OC1=O | 11.5 | 32.5 | 78 | 80.8 | 25.1 |  |  |
| 40 | 30 | 10 | CC(C)C[C@@H]1NC(=O)[C@@H](CC(C)C)NC(=O)CCNC(=O)[C@H](Cc2ccccc2)N(C)C(=O)[C@H](CC(C)C)OC1=O | 29.3 | 35 |  |  | 100 | 30.7 | 25.6 |
| > 200 | > 200 | > 150 | CC(C)C[C@@H]1NC(=O)[C@@H](CC(C)C)NC(=O)CCN(C)C(=O)[C@H](Cc2ccccc2)N(C)C(=O)[C@H](CC(C)C)OC1=O |  |  |  |  |  |  |  |
| 150 | 150 | 50 | CC(C)C[C@@H]1NC(=O)[C@@H](CC(C)C)OC(=O)CCNC(=O)[C@H](Cc2ccccc2)N(C)C(=O)[C@H](CC(C)C)OC1=O |  |  | 66.5 | 64.4 | 26.8 | 55.4 | 39.4 |
